{"source": "patent US20240343733A1", "about": "“COMPOUNDS FOR TARGETING DEGRADATION OF IRAK4 PROTEINS” (BIOGEN MA INC., priority 2021, published 2024)"}
{"biological_target": "T1, IRAK4 (Homo sapiens, UniProt Q9NWZ3)", "T1 construct": "293Tcells expressing HiBiT-tagged IRAK4 were then added into 384-well plates", "T1 sequence (Q9NWZ3 1-460)": "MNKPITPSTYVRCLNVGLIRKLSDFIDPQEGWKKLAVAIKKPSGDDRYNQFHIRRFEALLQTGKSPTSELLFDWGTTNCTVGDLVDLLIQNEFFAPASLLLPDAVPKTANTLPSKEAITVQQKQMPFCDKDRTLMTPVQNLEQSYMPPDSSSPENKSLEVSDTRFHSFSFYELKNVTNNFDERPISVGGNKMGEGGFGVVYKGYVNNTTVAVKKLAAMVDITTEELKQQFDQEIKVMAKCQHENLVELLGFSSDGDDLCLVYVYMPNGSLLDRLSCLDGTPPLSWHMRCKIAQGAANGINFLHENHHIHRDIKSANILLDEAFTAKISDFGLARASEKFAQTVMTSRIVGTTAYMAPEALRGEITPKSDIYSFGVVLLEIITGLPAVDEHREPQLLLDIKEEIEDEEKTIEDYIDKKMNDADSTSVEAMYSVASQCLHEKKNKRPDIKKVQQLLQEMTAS", "assay": "IRAK4 Degradation Assay, HiBiT Method", "type": "cell-based", "conditions": "293T cells expressing HiBiT-tagged IRAK4, 6 hours", "in_short": "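Luminescent read-out with Nano-Glo HiBiT lytic reagent after 6 h compound exposure at 37 °C. Cells were HiBiT-IRAK4 knock-in 293T (C-terminal tag), 10,000 per well. Compounds ran as 11-point half-log dilutions from […] highest dose, duplicate wells; DMSO served as negative control.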", "units": {"DC50": "µM"}}
{"compound": "CC(C)Oc1cc2nn([C@H]3CC[C@H](CN4CC[C@H](c5ccc6c(N7CCC(=O)NC7=O)nn(C)c6c5)[C@H](O)C4)CC3)cc2cc1C(=O)Nc1cccn(C2C[C@H]2F)c1=O", "note": "(stereo partly drawn) [Example 116, 2-((1S,4S)-4-(((3S,4R)-4-(3-(2,4-dioxotetrahydropyrimidin-1(2H)-yl)-1-methyl-1H-indazol-6-yl)-3-hydroxypiperidin-1-yl)methyl)cyclohexyl)-N-(1-((1S,2R)-2-fluorocyclopropyl)-2-oxo-1,2-dihydropyridin-3-yl)-6-isopropoxy-2H-indazole-5-carboxamide]", "DC50": "< 0.01"}
{"compound": "CC(C)Oc1cc2nn([C@H]3CC[C@H](CN4CC5(CCN(c6ncc(C7CCC(=O)NC7=O)cc6F)CC5)C4)CC3)cc2cc1C(=O)Nc1cnn2cccnc12", "note": "(some centres unmarked) [Example 117, 2-((1r,4r)-4-((7-(5-(2,6-dioxopiperidin-3-yl)-3-fluoropyridin-2-yl)-2,7-diazaspiro[3.5]nonan-2-yl)methyl)cyclohexyl)-6-isopropoxy-N-(pyrazolo[1,5-a]pyrimidin-3-yl)-2H-indazole-5-carboxamide]", "DC50": "< 0.01"}
{"compound": "CC(C)Oc1cc2nn([C@H]3CC[C@H](CN4CCCC(c5ccc(OC6CCC(=O)NC6=O)cc5)C4)CC3)cc2cc1C(=O)Nc1cccn(C2CC2)c1=O", "note": "(some centres unmarked) [Example 118, N-(1-cyclopropyl-2-oxo-1,2-dihydropyridin-3-yl)-2-((1r,4r)-4-((3-(4-((2,6-dioxopiperidin-3-yl)oxy)phenyl)piperidin-1-yl)methyl)cyclohexyl)-6-isopropoxy-2H-indazole-5-carboxamide]", "DC50": "0.01 to 0.1"}
{"compound": "CC(C)Oc1cc2nn([C@H]3CC[C@H](CN4CCN(c5ncc(C6CCC(=O)NC6=O)cc5F)CC(O)C4)CC3)cc2cc1C(=O)Nc1cccn([C@H]2C[C@H]2F)c1=O", "note": "(stereo partly drawn) [Example 119, 2-((1r,4S)-4-((4-(5-(2,6-dioxopiperidin-3-yl)-3-fluoropyridin-2-yl)-6-hydroxy-1,4-diazepan-1-yl)methyl)cyclohexyl)-N-(1-((1S,2R)-2-fluorocyclopropyl)-2-oxo-1,2-dihydropyridin-3-yl)-6-isopropoxy-2H-indazole-5-carboxamide]", "DC50": "< 0.01"}
{"compound": "CC(C)Oc1cc2nn([C@H]3CC[C@H](CN4CC5(CCN(c6ncc(C7CCC(=O)NC7=O)cc6F)CC5)C4)CC3)cc2cc1C(=O)Nc1cccn(C2CC2)c1=O", "note": "(some centres unmarked) [Example 124, N-(1-cyclopropyl-2-oxo-1,2-dihydropyridin-3-yl)-2-((r,4r)-4-((7-(5-(2,6-dioxopiperidin-3-yl)-3-fluoropyridin-2-yl)-2,7-diazaspiro[3.5]nonan-2-yl)methyl)cyclohexyl)-6-isopropoxy-2H-indazole-5-carboxamide]", "DC50": "< 0.01"}
{"compound": "CC(C)Oc1cc2nn([C@H]3CC[C@H](CN4CC5(C4)CN(c4ncc(C6CCC(=O)NC6=O)cc4F)C5)CC3)cc2cc1C(=O)Nc1cccn([C@H]2C[C@H]2F)c1=O", "note": "(stereo partly drawn) [Example 126, 2-((1r,4S)-4-((6-(5-(2,6-dioxopiperidin-3-yl)-3-fluoropyridin-2-yl)-2,6-diazaspiro[3.3]heptan-2-yl)methyl)cyclohexyl)-N-(1-((1S,2R)-2-fluorocyclopropyl)-2-oxo-1,2-dihydropyridin-3-yl)-6-isopropoxy-2H-indazole-5-carboxamide]", "DC50": "< 0.01"}
{"compound": "CC(C)Oc1cc2nn([C@H]3CC[C@H](CN4CCOC[C@H]4Cc4ccc(OC5CCC(=O)NC5=O)cc4)CC3)cc2cc1C(=O)Nc1cccn(C2CC2)c1=O", "note": "(stereo partly drawn) [Example 127, N-(1-cyclopropyl-2-oxo-1,2-dihydropyridin-3-yl)-2-((S,4r)-4-(((3S)-3-(4-((2,6-dioxopiperidin-3-yl)oxy)benzyl)morpholino)methyl)cyclohexyl)-6-isopropoxy-2H-indazole-5-carboxamide]", "DC50": "0.01 to 0.1"}
{"compound": "CC(C)Oc1cc2nn([C@H]3CC[C@H](CN4CCC(c5cc6c(cc5F)c(N5CCC(=O)NC5=O)nn6C)CC4)CC3)cc2cc1C(=O)Nc1cccn([C@H]2C[C@H]2F)c1=O", "note": "[Example 130, 2-((1r,4S)-4-((4-(3-(2,4-dioxotetrahydropyrimidin-1(2H)-yl)-5-fluoro-1-methyl-1H-indazol-6-yl)piperidin-1-yl)methyl)cyclohexyl)-N-(1-((1S,2R)-2-fluorocyclopropyl)-2-oxo-1,2-dihydropyridin-3-yl)-6-isopropoxy-2H-indazole-5-carboxamide]", "DC50": "< 0.01"}
{"compound": "CC(C)Oc1cc2nn([C@H]3CC[C@H](CN4CCOC[C@@H]4Cc4ccc(OC5CCC(=O)NC5=O)cc4)CC3)cc2cc1C(=O)Nc1cnn2cccnc12", "note": "(stereo partly drawn) [Example 131, 2-((1R,4r)-4-(((3R)-3-(4-((2,6-dioxopiperidin-3-yl)oxy)benzyl)morpholino)methyl)cyclohexyl)-6-isopropoxy-N-(pyrazolo[1,5-a]pyrimidin-3-yl)-2H-indazole-5-carboxamide]", "DC50": "0.01 to 0.1"}
{"compound": "CC(C)Oc1cc2nn([C@H]3CC[C@H](CN4CC[C@@H](c5ccc6c(N7CCC(=O)NC7=O)nn(C)c6c5)[C@H](O)C4)CC3)cc2cc1C(=O)Nc1cccn([C@H]2C[C@H]2F)c1=O", "note": "[Example 132, 2-((1S,4S)-4-(((3S,4S)-4-(3-(2,4-dioxotetrahydropyrimidin-1(2H)-yl)-1-methyl-1H-indazol-6-yl)-3-hydroxypiperidin-1-yl)methyl)cyclohexyl)-N-(1-((1S,2R)-2-fluorocyclopropyl)-2-oxo-1,2-dihydropyridin-3-yl)-6-isopropoxy-2H-indazole-5-carboxamide]", "DC50": "< 0.01"}
{"compound": "CC(C)Oc1cc2nn([C@H]3CC[C@H](CN4CC[C@@H](c5ccc6c(C7CCC(=O)NC7=O)nn(C)c6c5)[C@@H](O)C4)CC3)cc2cc1C(=O)Nc1cccn([C@H]2C[C@H]2F)c1=O", "note": "(stereo partly drawn) [Example 133, 2-((1R,4S)-4-(((3R,4S)-4-(3-(2,6-dioxopiperidin-3-yl)-1-methyl-1H-indazol-6-yl)-3-hydroxypiperidin-1-yl)methyl)cyclohexyl)-N-(1-((1S,2R)-2-fluorocyclopropyl)-2-oxo-1,2-dihydropyridin-3-yl)-6-isopropoxy-2H-indazole-5-carboxamide]", "DC50": "< 0.01"}
{"compound": "CO[C@H]1CN(C[C@H]2CC[C@H](n3cc4cc(C(=O)Nc5cccn([C@H]6C[C@H]6F)c5=O)c(OC(C)C)cc4n3)CC2)CC[C@H]1c1ccc2c(N3CCC(=O)NC3=O)nn(C)c2c1", "note": "[Example 134, 2-((1R,4S)-4-(((3R,4S)-4-(3-(2,4-dioxotetrahydropyrimidin-1(2H)-yl)-1-methyl-1H-indazol-6-yl)-3-methoxypiperidin-1-yl)methyl)cyclohexyl)-N-(1-((1S,2R)-2-fluorocyclopropyl)-2-oxo-1,2-dihydropyridin-3-yl)-6-isopropoxy-2H-indazole-5-carboxamide]", "DC50": "< 0.01"}
{"compound": "CC(C)Oc1cc2nn([C@H]3CC[C@H](CN4CCOC[C@@H]4Cc4ccc(OC5CCC(=O)NC5=O)cc4)CC3)cc2cc1C(=O)Nc1cccn([C@H]2C[C@H]2F)c1=O", "note": "(stereo partly drawn) [Example 135, 2-((1S,4S)-4-(((3S)-3-(4-((2,6-dioxopiperidin-3-yl)oxy)benzyl)morpholino)methyl)cyclohexyl)-N-(1-((1S,2R)-2-fluorocyclopropyl)-2-oxo-1,2-dihydropyridin-3-yl)-6-isopropoxy-2H-indazole-5-carboxamide]", "DC50": "< 0.01"}
{"compound": "CC(C)Oc1cc2nn([C@H]3CC[C@H](CN4CC[C@@H](c5ncc(NC6CCC(=O)NC6=O)cc5F)[C@H](O)C4)CC3)cc2cc1C(=O)Nc1cccn([C@H]2C[C@H]2F)c1=O", "note": "(stereo partly drawn) [Example 136, 2-((1S,4S)-4-(((3S,4S)-4-(5-((2,6-dioxopiperidin-3-yl)amino)-3-fluoropyridin-2-yl)-3-hydroxypiperidin-1-yl)methyl)cyclohexyl)-N-(1-((1S,2R)-2-fluorocyclopropyl)-2-oxo-1,2-dihydropyridin-3-yl)-6-isopropoxy-2H-indazole-5-carboxamide]", "DC50": "< 0.01"}
{"compound": "CC(C)Oc1cc2nn([C@H]3CC[C@H](CN4CCC(c5ccc6c(c5)n(C)c(=O)n6C5CCC(=O)NC5=O)CC4)CC3)cc2cc1C(=O)Nc1cccn([C@H]2C[C@H]2F)c1=O", "note": "(stereo partly drawn) [Example 137, 2-((1r,4S)-4-((4-(1-(2,6-dioxopiperidin-3-yl)-3-methyl-2-oxo-2,3-dihydro-1H-benzo[d]imidazol-5-yl)piperidin-1-yl)methyl)cyclohexyl)-N-(1-((1S,2R)-2-fluorocyclopropyl)-2-oxo-1,2-dihydropyridin-3-yl)-6-isopropoxy-2H-indazole-5-carboxamide]", "DC50": "< 0.01"}
{"compound": "CC(C)Oc1cc2nn([C@H]3CC[C@H](CN[C@@H]4CC[C@H](c5ccc6c(N7CCC(=O)NC7=O)nn(C)c6c5)[C@H](O)C4)CC3)cc2cc1C(=O)Nc1cccn([C@H]2C[C@H]2F)c1=O", "note": "[Example 138, 2-((1R,4S)-4-((((1R,3R,4R)-4-(3-(2,4-dioxotetrahydropyrimidin-1(2H)-yl)-1-methyl-1H-indazol-6-yl)-3-hydroxycyclohexyl)amino)methyl)cyclohexyl)-N-(1-((1S,2R)-2-fluorocyclopropyl)-2-oxo-1,2-dihydropyridin-3-yl)-6-isopropoxy-2H-indazole-5-carboxamide]", "DC50": "< 0.01"}
{"compound": "CC(C)Oc1cc2nn([C@H]3CC[C@H](CN4CCCCC4Cc4ccc(OC5CCC(=O)NC5=O)cc4)CC3)cc2cc1C(=O)Nc1cccn([C@H]2C[C@H]2F)c1=O", "note": "(stereo partly drawn) [Example 139, 2-((1r,4S)-4-((2-(4-((2,6-dioxopiperidin-3-yl)oxy)benzyl)piperidin-1-yl)methyl)cyclohexyl)-N-(1-((1S,2R)-2-fluorocyclopropyl)-2-oxo-1,2-dihydropyridin-3-yl)-6-isopropoxy-2H-indazole-5-carboxamide]", "DC50": "< 0.01"}
